Results published in patent US12133855B2, “Lipid-like nanocomplexes and uses thereof” (Trustees of Tufts College, priority 2018, dated 2024).
Read-outs that look alike come from different tables or passages of the source.

What was measured:
Format in all cases: cell-based
HeLa cells [1] = assay: GFP mRNA delivery (GFP+ cells); conditions: LNP/mRNA=10/1; [mRNA]=0.86 μg mL^−1; 24 h exposure
From the text: Messenger RNA delivery has great potentials for cancer therapy, protein replacement therapy and neurological disorder treatments.^42 The intracellular delivery of mRNA using OCholB LNPs was studied using GFP mRNA and different cell lines (HeLa, B16F10, HEK-293, NIH/3T3 and Jurkat). The weight ratio of LNP/mRNA was optimized at first using HeLa cells. […] The weight ratio of LNP/mRNA=10/1 was then chose for the following mRNA delivery studies. […] Then the intracellular delivery efficiencies of all fully substituted OCholB LNPs were tested against HeLa cells, and Lpf2k and naked GFP mRNA were used as controls (LNP/mRNA=10/1; [mRNA]=0.86 μg mL^−1; 24 h exposure). […] As to the OCholB LNPs, 75-OCholB (62.0% of GFP^+ cells), 76-OCholB (79.8%), 77-OCholB (73.5%), 78-OCholB (67.1%), 80-OCholB (55.6%), 81-OCholB (51.6%) and 304-OCholB (52.1%) are all determined to be effective. Typical fluorescent images of mRNA/LNPs (mRNA/75-OCholB, mRNA/76-OCholB and mRNA/77-OCholB) treated HeLa cells are shown in FIG. 14C. Comparing to untreated HeLa cells, strong green fluorescent signals were recoded from nanoparticles incubated cells, which is consistent with the flow cytometry data as shown in FIG. 14D. Meanwhile, both 87-OCholB (6.1%) and 90-OCholB (2.5%) are found to be inefficient for GFP mRNA delivery into HeLa cells, which is consistent with the internalization studies using NR (FIG. 12C) and (−30)GFP-Cre protein (FIG. 12F) as the fluorescent reporters.

HeLa cells [2] = assay: Internalization of Nile red loaded nanoparticles (NR+ cells); conditions: 8 h of exposure
Protocol: (§1) The internalization kinetics and efficiencies of OCholB LNPs were then studied using NR loaded LNPs and HeLa cells. […] Next, all of the NR delivery efficiencies of eight OCholB LNPs were determined after 8 h of exposure. […] Representative fluorescent images of NR/LNPs (NR/75-OCholB, NR/76-OCholB and NR/77-OCholB) treated HeLa cells are shown in FIG. 12D, from which it is easily observed that NR was delivered into the cells and mainly distributed in cytoplasm, by OCholB LNPs. Next, the internalization of negatively charged hydrophilic fluorescent dye, calcein, was studied. […] Next, the use of OCholB LNPs for the intracellular delivery of macromolecular cargo was explored, using fluorescent recombinant (−30)GFP-Cre protein and HeLa-DsRed cells as the model system. […] Delivery efficiency was tested at a range of (−30)GFP-Cre protein concentrations (25, 50 and 100 nM), with a consistent lipid/protein ratio (i.e., delivery with the final lipid concentration of 1.7, 3.3, and 6.6 μg mL^−1 respectively). 33.2%, 43.8% and 74% of GFP positive (GFP^+) cells were recorded for (−30)GFP-Cre/Lpf2k treated cells with the concentration of (−30)GFP-Cre 25 nM, 50 nM and 100 nM, respectively. […] The typical flow cytometry profiles of naked (−30)GFP-Cre protein and (−30)GFP-Cre loaded nanoparticles ((−30)GFP-Cre/75-OCholB, (−30)GFP-Cre/76-OCholB, (−30)GFP-Cre/77-OCholB and (−30)GFP-Cre/Lpf2k) treated HeLa-DsRed cells were shown in and FIG. 12H ([lipidoid]=6.6 μg mL^−1 and [(−30)GFP-Cre]=100 nM), which is consistent with the statistical results shown in FIG. 12G. Furthermore, the representative fluorescent images from the protein and protein/nanoparticle treated HeLa-DsRed cells are also shown in FIG. 12I.

HeLa-DsRed cells = conditions: for cell morphology (bright field images) vs untreated cells / mean fluorescence intensity of treated cells: [lipidoid]=6.6 μg mL^−1, [(−30)GFP-Cre]=100 nM; for green fluorescence signals (fluorescent images): protein/nanoparticle treated HeLa-DsRed cells
Protocol: as §1

[3] = (−30)GFP-Cre 25 nM, lipid 1.7 μg mL^−1
[4] = (−30)GFP-Cre 50 nM, lipid 3.3 μg mL^−1
[5] = (−30)GFP-Cre 100 nM, lipid 6.6 μg mL^−1

Compound | GFP^+ cells (HeLa cells [1]) [%] | NR^+ cells (HeLa cells [2]) [%] | GFP positive (GFP^+) cells (HeLa-DsRed cells; [3]) [%] | GFP positive (GFP^+) cells (HeLa-DsRed cells; [4]) [%] | GFP positive (GFP^+) cells (HeLa-DsRed cells; [5]) [%] | cell morphology (bright field images) vs untreated cells (HeLa-DsRed cells) | mean fluorescence intensity of treated cells (HeLa-DsRed cells) | green fluorescence signals (fluorescent images) (HeLa-DsRed cells)
CC(C)CCCC(C)C1CCC2C3CC=C4CC(OC(=O)NCCSSCCOC(=O)CCN(CCC(=O)OCCSSCCNC(=O)OC5CCC6(C)C(=CCC7C6CCC6(C)C(C(C)CCCC(C)C)CCC76)C5)CCN5CCCC5)CCC4(C)C3CCC12C (stereo not drawn) [Lipidoid 76-OCholB] | 79.8 | 65.0 | 66.4 | 96.3 | 98.7 | no evident morphological change | much more efficient than others | Strong green fluorescence signals
CCN(CC)CCN(CCC(=O)OCCSSCCNC(=O)OC1CCC2(C)C(=CCC3C2CCC2(C)C(C(C)CCCC(C)C)CCC32)C1)CCC(=O)OCCSSCCNC(=O)OC1CCC2(C)C(=CCC3C2CCC2(C)C(C(C)CCCC(C)C)CCC32)C1 (stereo not drawn) [Lipidoid 75-OCholB] | 62.0 | 85.2 | – | 42.3 | 93.1 | no evident morphological change | much more efficient than others | Strong green fluorescence signals
CC(C)CCCC(C)C1CCC2C3CC=C4CC(OC(=O)NCCSSCCOC(=O)CCN(CCCN(C)C)CCC(=O)OCCSSCCNC(=O)OC5CCC6(C)C(=CCC7C6CCC6(C)C(C(C)CCCC(C)C)CCC76)C5)CCC4(C)C3CCC12C (stereo not drawn) [Lipidoid 80-OCholB] | 55.6 | 71.4 | 54.7 | 88.9 | 97.0 | – | much more efficient than others | –
CCN(CC)CCCN(CCC(=O)OCCSSCCNC(=O)OC1CCC2(C)C(=CCC3C2CCC2(C)C(C(C)CCCC(C)C)CCC32)C1)CCC(=O)OCCSSCCNC(=O)OC1CCC2(C)C(=CCC3C2CCC2(C)C(C(C)CCCC(C)C)CCC32)C1 (stereo not drawn) [Lipidoid 81-OCholB] | 51.6 | 27.0 | 40.9 | 87.4 | 91.5 | – | much more efficient than others | –
CC(C)CCCC(C)C1CCC2C3CC=C4CC(OC(=O)NCCSSCCOC(=O)CCN(CCC(=O)OCCSSCCNC(=O)OC5CCC6(C)C(=CCC7C6CCC6(C)C(C(C)CCCC(C)C)CCC76)C5)CCN(C)C)CCC4(C)C3CCC12C (stereo not drawn) [Lipidoid 78-OCholB] | 67.1 | 92.3 | – | 46.1 | 90.1 | – | – | –
CC(C)CCCC(C)C1CCC2C3CC=C4CC(OC(=O)NCCSSCCOC(=O)CCN(CCC(=O)OCCSSCCNC(=O)OC5CCC6(C)C(=CCC7C6CCC6(C)C(C(C)CCCC(C)C)CCC76)C5)CCC5CCCN5C)CCC4(C)C3CCC12C (stereo not drawn) [Lipidoid 77-OCholB] | 73.5 | 90.3 | 66.4 | 90.7 | 97.9 | no evident morphological change | much more efficient than others | Strong green fluorescence signals
CC(C)CCCC(C)C1CCC2C3CC=C4CC(OC(=O)NCCSSCCOC(=O)CCN(C)CCN(CCN(C)CCC(=O)OCCSSCCNC(=O)OC5CCC6(C)C(=CCC7C6CCC6(C)C(C(C)CCCC(C)C)CCC76)C5)CCN(C)CCC(=O)OCCSSCCNC(=O)OC5CCC6(C)C(=CCC7C6CCC6(C)C(C(C)CCCC(C)C)CCC76)C5)CCC4(C)C3CCC12C (stereo not drawn) [Lipidoid 304-OCholB] | 52.1 | 22.8 | – | – | 48.8 | – | – | –
